In the NIST ThermoML archive (doi:10.1016/j.jct.2007.04.005):
Numbers after ± are expanded uncertainties.

Assay: xn = mol fraction of the nth substance listed
Settings: 308.15 K, Liquid

CCCCCCCCC [nonane] + C1CCCCC1
mass density (18340 kPa, x2 = 0.7052): 752.9 ± 1.2 kg/m3 | mass density (18340 kPa, x2 = 0.7993): 760 ± 1.2 kg/m3 | mass density (18340 kPa, x2 = 0.9039): 769.1 ± 1.2 kg/m3 | mass density (20370 kPa, x2 = 0): 721.7 ± 1.5 kg/m3 | mass density (20370 kPa, x2 = 0.09303): 724.7 ± 1.5 kg/m3 | mass density (20370 kPa, x2 = 0.2009): 728.6 ± 1.5 kg/m3 | mass density (20370 kPa, x2 = 0.3051): 732.8 ± 1.5 kg/m3 | mass density (20370 kPa, x2 = 0.417): 737.8 ± 1.4 kg/m3 | mass density (20370 kPa, x2 = 0.512): 742.4 ± 1.4 kg/m3 | mass density (20370 kPa, x2 = 0.5996): 747.6 ± 1.4 kg/m3 | mass density (20370 kPa, x2 = 0.7052): 754.4 ± 1.3 kg/m3 | mass density (20370 kPa, x2 = 0.7993): 761.5 ± 1.3 kg/m3 | mass density (20370 kPa, x2 = 0.9039): 770.6 ± 1.2 kg/m3 | mass density (22390 kPa, x2 = 0): 723.1 ± 1.6 kg/m3 | mass density (22390 kPa, x2 = 0.09303): 726.1 ± 1.6 kg/m3 | mass density (22390 kPa, x2 = 0.2009): 730.1 ± 1.6 kg/m3 | mass density (22390 kPa, x2 = 0.3051): 734.3 ± 1.5 kg/m3 | mass density (22390 kPa, x2 = 0.417): 739.3 ± 1.5 kg/m3 | mass density (22390 kPa, x2 = 0.512): 743.9 ± 1.5 kg/m3 | mass density (22390 kPa, x2 = 0.5996): 749.1 ± 1.4 kg/m3 | mass density (22390 kPa, x2 = 0.7052): 755.9 ± 1.4 kg/m3 | mass density (22390 kPa, x2 = 0.7993): 763 ± 1.3 kg/m3 | mass density (22390 kPa, x2 = 0.9039): 772.1 ± 1.3 kg/m3 | mass density (24420 kPa, x2 = 0): 724.5 ± 1.7 kg/m3 | mass density (24420 kPa, x2 = 0.09303): 727.5 ± 1.7 kg/m3 | mass density (24420 kPa, x2 = 0.2009): 731.5 ± 1.6 kg/m3 | mass density (24420 kPa, x2 = 0.3051): 735.7 ± 1.6 kg/m3 | mass density (24420 kPa, x2 = 0.417): 740.7 ± 1.6 kg/m3 | mass density (24420 kPa, x2 = 0.512): 745.3 ± 1.5 kg/m3 | mass density (24420 kPa, x2 = 0.5996): 750.5 ± 1.5 kg/m3 | mass density (24420 kPa, x2 = 0.7052): 757.4 ± 1.5 kg/m3 | mass density (24420 kPa, x2 = 0.7993): 764.4 ± 1.4 kg/m3 | mass density (24420 kPa, x2 = 0.9039): 773.6 ± 1.4 kg/m3 | mass density (26450 kPa, x2 = 0): 725.9 ± 1.8 kg/m3 | mass density (26450 kPa, x2 = 0.09303): 728.9 ± 1.8 kg/m3 | mass density (26450 kPa, x2 = 0.2009): 732.9 ± 1.7 kg/m3 | mass density (26450 kPa, x2 = 0.3051): 737.1 ± 1.7 kg/m3 | mass density (26450 kPa, x2 = 0.417): 742.1 ± 1.6 kg/m3 | mass density (26450 kPa, x2 = 0.512): 746.8 ± 1.6 kg/m3 | mass density (26450 kPa, x2 = 0.5996): 751.9 ± 1.6 kg/m3 | mass density (26450 kPa, x2 = 0.7052): 758.8 ± 1.5 kg/m3 | mass density (26450 kPa, x2 = 0.7993): 765.8 ± 1.5 kg/m3 | mass density (26450 kPa, x2 = 0.9039): 775.1 ± 1.4 kg/m3 | mass density (28470 kPa, x2 = 0): 727.2 ± 1.9 kg/m3 | mass density (28470 kPa, x2 = 0.09303): 730.3 ± 1.8 kg/m3 | mass density (28470 kPa, x2 = 0.2009): 734.2 ± 1.8 kg/m3 | mass density (28470 kPa, x2 = 0.3051): 738.4 ± 1.8 kg/m3 | mass density (28470 kPa, x2 = 0.417): 743.5 ± 1.7 kg/m3 | mass density (28470 kPa, x2 = 0.512): 748.1 ± 1.7 kg/m3 | mass density (28470 kPa, x2 = 0.5996): 753.3 ± 1.6 kg/m3 | mass density (28470 kPa, x2 = 0.7052): 760.2 ± 1.6 kg/m3 | mass density (28470 kPa, x2 = 0.7993): 767.2 ± 1.5 kg/m3 | mass density (28470 kPa, x2 = 0.9039): 776.5 ± 1.5 kg/m3 | mass density (29490 kPa, x2 = 0): 727.8 ± 1.9 kg/m3 | mass density (29490 kPa, x2 = 0.09303): 730.9 ± 1.9 kg/m3 | mass density (29490 kPa, x2 = 0.2009): 734.9 ± 1.8 kg/m3 | mass density (29490 kPa, x2 = 0.3051): 739.1 ± 1.8 kg/m3 | mass density (29490 kPa, x2 = 0.417): 744.1 ± 1.7 kg/m3 | mass density (29490 kPa, x2 = 0.512): 748.7 ± 1.7 kg/m3 | mass density (29490 kPa, x2 = 0.5996): 754 ± 1.7 kg/m3 | mass density (29490 kPa, x2 = 0.7052): 760.9 ± 1.6 kg/m3 | mass density (29490 kPa, x2 = 0.7993): 767.9 ± 1.6 kg/m3 | mass density (29490 kPa, x2 = 0.9039): 777.2 ± 1.5 kg/m3 | mass density (30500 kPa, x2 = 0): 728.5 ± 1.9 kg/m3 | mass density (30500 kPa, x2 = 0.09303): 731.6 ± 1.9 kg/m3 | mass density (30500 kPa, x2 = 0.2009): 735.6 ± 1.9 kg/m3 | mass density (30500 kPa, x2 = 0.3051): 739.8 ± 1.8 kg/m3 | mass density (30500 kPa, x2 = 0.417): 744.8 ± 1.8 kg/m3 | mass density (30500 kPa, x2 = 0.512): 749.4 ± 1.7 kg/m3 | mass density (30500 kPa, x2 = 0.5996): 754.7 ± 1.7 kg/m3 | mass density (30500 kPa, x2 = 0.7052): 761.6 ± 1.7 kg/m3 | mass density (30500 kPa, x2 = 0.7993): 768.6 ± 1.6 kg/m3 | mass density (30500 kPa, x2 = 0.9039): 777.9 ± 1.5 kg/m3 | mass density (32530 kPa, x2 = 0): 729.8 ± 2 kg/m3 | mass density (32530 kPa, x2 = 0.09303): 732.9 ± 2 kg/m3 | mass density (32530 kPa, x2 = 0.2009): 736.9 ± 1.9 kg/m3 | mass density (32530 kPa, x2 = 0.3051): 741.1 ± 1.9 kg/m3 | mass density (32530 kPa, x2 = 0.417): 746.1 ± 1.9 kg/m3 | mass density (32530 kPa, x2 = 0.512): 750.8 ± 1.8 kg/m3 | mass density (32530 kPa, x2 = 0.5996): 756 ± 1.8 kg/m3 | mass density (32530 kPa, x2 = 0.7052): 762.9 ± 1.7 kg/m3 | mass density (32530 kPa, x2 = 0.7993): 770 ± 1.7 kg/m3 | mass density (32530 kPa, x2 = 0.9039): 779.3 ± 1.6 kg/m3 | mass density (34550 kPa, x2 = 0): 731.1 ± 2.1 kg/m3 | mass density (34550 kPa, x2 = 0.09303): 734.2 ± 2.1 kg/m3 | mass density (34550 kPa, x2 = 0.2009): 738.2 ± 2 kg/m3 | mass density (34550 kPa, x2 = 0.3051): 742.4 ± 2 kg/m3 | mass density (34550 kPa, x2 = 0.417): 747.4 ± 1.9 kg/m3 | mass density (34550 kPa, x2 = 0.512): 752 ± 1.9 kg/m3 | mass density (34550 kPa, x2 = 0.5996): 757.3 ± 1.8 kg/m3 | mass density (34550 kPa, x2 = 0.7052): 764.3 ± 1.8 kg/m3 | mass density (34550 kPa, x2 = 0.7993): 771.3 ± 1.7 kg/m3 | mass density (34550 kPa, x2 = 0.9039): 780.6 ± 1.7 kg/m3 | mass density (36580 kPa, x2 = 0): 732.4 ± 2.2 kg/m3 | mass density (36580 kPa, x2 = 0.09303): 735.4 ± 2.1 kg/m3 | mass density (36580 kPa, x2 = 0.2009): 739.5 ± 2.1 kg/m3 | mass density (36580 kPa, x2 = 0.3051): 743.7 ± 2 kg/m3 | mass density (36580 kPa, x2 = 0.417): 748.7 ± 2 kg/m3 | mass density (36580 kPa, x2 = 0.512): 753.3 ± 2 kg/m3 | mass density (36580 kPa, x2 = 0.5996): 758.6 ± 1.9 kg/m3 | mass density (36580 kPa, x2 = 0.7052): 765.6 ± 1.9 kg/m3 | mass density (36580 kPa, x2 = 0.7993): 772.6 ± 1.8 kg/m3 | mass density (36580 kPa, x2 = 0.9039): 781.9 ± 1.7 kg/m3 | mass density (38600 kPa, x2 = 0): 733.6 ± 2.2 kg/m3 | mass density (38600 kPa, x2 = 0.09303): 736.7 ± 2.2 kg/m3 | mass density (38600 kPa, x2 = 0.2009): 740.8 ± 2.2 kg/m3 | mass density (38600 kPa, x2 = 0.3051): 745 ± 2.1 kg/m3 | mass density (38600 kPa, x2 = 0.417): 750 ± 2.1 kg/m3 | mass density (38600 kPa, x2 = 0.512): 754.6 ± 2 kg/m3 | mass density (38600 kPa, x2 = 0.5996): 759.9 ± 2 kg/m3 | mass density (38600 kPa, x2 = 0.7052): 766.9 ± 1.9 kg/m3 | mass density (38600 kPa, x2 = 0.7993): 773.9 ± 1.9 kg/m3 | mass density (38600 kPa, x2 = 0.9039): 783.3 ± 1.8 kg/m3 | mass density (39620 kPa, x2 = 0): 734.3 ± 2.3 kg/m3 | mass density (39620 kPa, x2 = 0.09303): 737.4 ± 2.2 kg/m3 | mass density (39620 kPa, x2 = 0.2009): 741.4 ± 2.2 kg/m3 | mass density (39620 kPa, x2 = 0.3051): 745.6 ± 2.2 kg/m3 | mass density (39620 kPa, x2 = 0.417): 750.6 ± 2.1 kg/m3 | mass density (39620 kPa, x2 = 0.512): 755.3 ± 2.1 kg/m3 | mass density (39620 kPa, x2 = 0.5996): 760.6 ± 2 kg/m3 | mass density (39620 kPa, x2 = 0.7052): 767.5 ± 1.9 kg/m3 | mass density (39620 kPa, x2 = 0.7993): 774.5 ± 1.9 kg/m3 | mass density (39620 kPa, x2 = 0.9039): 783.9 ± 1.8 kg/m3
